Measurements from patent publication US20220296573A1, “NOVEL COMPOUNDS AND PHARMACEUTICAL COMPOSITIONS THEREOF FOR THE TREATMENT OF INFLAMMATORY DISORDERS” (Galapagos NV, priority 2019, published 2022).
≈ marks a conversion by molar mass, not a printed value. Read-outs that look alike come from different tables or passages of the source.

Key:
Thermodynamic solubility = type: physicochemical; conditions: for solubility thermodynamic at 24 h: 37 °C, thermodynamic from solid
Procedure: In a 8 mL glass vial, 1-2 mg of dry matter of compound were added and stirred with the suitable buffers (Fed State Simulated Intestine Fluid, FeSSIF, or Fasted State Simulated Intestine Fluid, FaSSIF, or Fasted State Simulated Gastric Fluid, FaSSGF, or phosphate buffer pH 7.4) for 24 h at r.t. (for the buffer pH 7.4) or 37° C. (for the GI fluids). The concentration of the mixture was 1 mg/mL.
A volume of 1000 μL were sampled, centrifuged for 10 min at 10 000 rpm and 500 μL of the supernatant were filtered on captiva plate. The samples are diluted in duplicates in DMSO (F100 and F10). Then, a final dilution (F100) in 80/20 H2O/MeCN containing the internal standard (warfarin) was used for LCMS-MS analysis.
A standard curve was made starting from a 40,000 ng/mL stock in DMSO, freshly prepared from dry matter. Then, successive concentrations at 15,000, 11,000, 6,000, 2,500, 1,000, 375, 150 and 75 ng/mL in DMSO were prepared.
Three quality control samples were made: one of 10,000, 1,500 and 200 ng/mL in DMSO, also starting from the DMSO working stock solution at 40,000 ng/mL.
The standard curve and quality controls were diluted a F100 in 80/20 H2O/MeCN (with internal standard) and analyzed on LC/MS-MS (API4000 or API5500).
The samples were analyzed on LC-MS with a flow rate of 0.6 mL/min. The mobile phase A was 0.1% formic acid in water and the mobile phase B was 0.1% formic acid in 90% MeCN and 10% of water. The sample was run under positive or negative ion spray on Pursuit C18—5 μm (2.0×20 mm) column, from Agilent.
The ratio analyte/internal standard peaks areas of the standard curve were plotted in a graph and a linear or polynomial of the second order equation was used to calculate the unknown concentrations of the test compound.
Solubility values were reported in μM and g/mL.

[1] = tested on: CL097 triggered IFNα release in human whole blood; assay: Ex vivo human IFNα release inhibition (whole blood assay); type: cell-based; conditions: CL097 2 μg/mL, 3 h 30 min
Text: The aim of the assay is to evaluate the activity of compounds of the invention on the activated TLR/IRAK-4 pathway in an ex vivo human whole blood setting. Toll-like receptors (TLRs) are pattern recognition receptors that recognize a wide variety of microbial molecules, called pathogen-associated molecular patterns (PAMPs). Human TLR7 and TLR8 recognize imidazoquinoline compounds (e.g., CL097—CAS n #1026249-18-2) and single stranded RNAs as their natural ligands. Activation of TLRs leads to the production of several cytokines (e.g., IFNα, TNFα, IL-8, IL-6) by the TLR agonist-treated cells, whereas IRAK4 leads to the production of IFNα. Cytokine release is used as readout in this assay and represents a measure for the level of inhibition of the TLR/IRAK-4 pathway by the tested compound. It should be noted that in the context of the complete organism, other sources for these cytokines exist that are not dependent on the TLR/IRAK-4 pathway, such as e.g., macrophages (upon activation of the Fcγ receptor (Yan et al. 2012)) or T cells (upon activation of the T cell receptor (Brehm, Daniels, and Welsh 2005)).
Blood is collected from healthy volunteers into lithium heparin tubes by venipuncture, then gently inverted several times to prevent clotting and incubated for at least 15 min at 37° C. on a rocking mixer shaker. Then, 100 μL of blood is dispensed into polypropylene 96-well microplate and pre-incubated in duplicate with 0.3% DMSO or test compound at different concentrations (from 30 to 0.01 μM, 3-fold dilutions to get 0.3% DMSO at the final) for 15 min at 37° C. After this pre-incubation, blood is triggered with CL097 (2 μg/mL from 1 mg/mL solution in water; InvivoGen, tlr1-c97) for 3 h 30 min at 37° C. Microtubes are centrifuged at 5000×g for 10 min at 4° C. and approximately 40 μL of plasma are collected into a polystyrene 96-well plate. Plasma can be analyzed freshly, within 30 min after triggering, or frozen at −80° C. Finally, the quantification of IFNα and IFNα were performed in the plasma using AlphaLISA Kit for […] according to the manufacturer's instructions and read on the Ensight (PerkinElmer).
A standard curve was created by plotting on log-log the mean absorbance on the y-axis against the concentration on the x-axis and a 4PL was made through the points. For each blood sample, the IFNα concentrations of the samples were determined from the fit.
Data were then expressed as a percentage of inhibition (PIN) for each replicate using the formula:
With mean IFNα with CL097=mean IFNα concentration of replicate samples triggered with CL097; IFNαsample1=IFNα concentration of sample 1; mean IFNα with vehicle=mean IFNα concentration of replicate samples treated with vehicle.
Curve fitting for pIC50 determination were generated using mean PIN±sem. Graphs and pIC50 calculations were derived using Prism 5.03 software (GraphPad).

[2] = Fasted State Simulated Gastric Fluid (FaSSGF), fassgf or other biorelevant, Fasted State Simulated Gastric Fluid, read-out: Tsol FaSSGF
[3] = Fasted State Simulated Intestine Fluid (FaSSIF), fassif, Fasted State Simulated Intestine Fluid, read-out: Tsol FaSSIF
[4] = Fed State Simulated Intestine Fluid (FeSSIF), fessif, Fed State Simulated Intestine Fluid, read-out: Tsol FeSSIF
[5] = Fasted State Simulated Intestine Fluid, 24 h, 37° C.

| SMILES | solubility thermodynamic at 24 h (Thermodynamic solubility; [2]) [µg/mL] | solubility thermodynamic at 24 h (Thermodynamic solubility; [3]) [µg/mL] | solubility thermodynamic at 24 h (Thermodynamic solubility; [4]) [µg/mL] | IC50 [1] [µM] | Tsol FaSSIF (Thermodynamic solubility; [5]) | Tsol FaSSGF (Thermodynamic solubility; Fasted State Simulated Gastric Fluid, 24 h, 37° C.) [µg/mL] | Tsol FeSSIF (Thermodynamic solubility; Fed State Simulated Intestine Fluid, 24 h, 37° C.) [µg/mL] |
| --- | --- | --- | --- | --- | --- | --- | --- |
| COc1cc2nc(C3COCCO3)cn2cc1NC(=O)c1cccn(C2CCC2)c1=O (centres unmarked) [Compound 5, 1-cyclobutyl-N-[2-(1,4-dioxan-2-yl)-7-methoxy-imidazo[1,2-a]pyridin-6-yl]-2-oxo-pyridine-3-carboxamide] |  | 43.9 (≈ 103 µM) |  | 1 to 5 |  |  |  |
| CNC(=O)c1cc2nc(C3COCCO3)cn2cc1NC(=O)c1cccc(C(F)(F)F)n1 (centres unmarked) [Compound 9, 2-(1,4-dioxan-2-yl)-N-methyl-6-(6-(trifluoromethyl)picolinamido)imidazo[1,2-a]pyridine-7-carboxamide] |  | 6.42 (≈ 14.3 µM) |  | 1 to 5 |  |  |  |
| COc1cc2nc(C3CCOCC3)cn2cc1NC(=O)c1cccc(C(F)(F)F)n1 [Compound 2, N-(7-methoxy-2-tetrahydropyran-4-yl-imidazo[1,2-a]pyridin-6-yl)-6-(trifluoromethyl)pyridine-2-carboxamide] | 1020 (≈ 2430 µM) | 19.3 (≈ 45.9 µM) |  | > 5 |  |  |  |
| COc1cc2nc(C3CCOCC3)cn2cc1NC(=O)c1cccn(C2CC2)c1=O [Compound 3, (1-cyclopropyl-N-[7-methoxy-2-(oxan-4-yl)imidazo[1,2-a]pyridin-6-yl]-2-oxopyridine-3-carboxamide)] | 947 (≈ 2320 µM) | 1010 (≈ 2480 µM) |  | 0.5 to 1 |  |  |  |
| NC(=O)c1cc2nc(C3COCCO3)cn2cc1NC(=O)c1cccc(C(F)(F)F)n1 (centres unmarked) [Compound 6, 2-(1,4-dioxan-2-yl)-6-[[6-(trifluoromethyl)pyridine-2-carbonyl]amino]imidazo[1,2-a]pyridine-7-carboxamide] |  |  |  | 1 to 5 | 2.30, 2.30 μg/mL |  |  |
| CC(F)(F)c1cccc(C(=O)Nc2cn3cc(C4COCCO4)nc3cc2C(N)=O)n1 (centres unmarked) [Compound 11, 6-(6-(1,1-difluoroethyl)picolinamido)-2-(1,4-dioxan-2-yl)imidazo[1,2-a]pyridine-7-carboxamide] | 335 (≈ 777 µM) | 12.2 (≈ 28.3 µM) |  | 0.5 to 1 |  |  |  |

Next, values leading:

| solubility thermodynamic at 24 h (Thermodynamic solubility; [2]) [µg/mL] | solubility thermodynamic at 24 h (Thermodynamic solubility; [3]) [µg/mL] | solubility thermodynamic at 24 h (Thermodynamic solubility; [4]) [µg/mL] | IC50 [1] [µM] | Tsol FaSSIF (Thermodynamic solubility; [5]) | Tsol FaSSGF (Thermodynamic solubility; Fasted State Simulated Gastric Fluid, 24 h, 37° C.) [µg/mL] | Tsol FeSSIF (Thermodynamic solubility; Fed State Simulated Intestine Fluid, 24 h, 37° C.) [µg/mL] | SMILES |
| --- | --- | --- | --- | --- | --- | --- | --- |
| > 1000 | 28.2 (≈ 68.7 µM) | > 1000 | 0.0001 to 0.5 |  |  |  | COc1cc2nc(C3COCCO3)cn2cc1NC(=O)c1cccn(C2CC2)c1=O (racemic) [Compound 1, 1-cyclopropyl-N-[2-(1,4-dioxan-2-yl)-7-methoxy-imidazo[1,2-a]pyridin-6-yl]-2-oxo-pyridine-3-carboxamide] |
| 1000 (≈ 2440 µM) |  | 208 (≈ 507 µM) | 0.0001 to 0.5 | 67.4 µg/mL |  |  | COc1cc2nc(C3COCCO3)cn2cc1NC(=O)c1cccn(C2CC2)c1=O (single isomer, unassigned) [Compound 8, 1-cyclopropyl-N-[2-(1,4-dioxan-2-yl)-7-methoxy-imidazo[1,2-a]pyridin-6-yl]-2-oxo-pyridine-3-carboxamide] |
|  |  |  | 0.0001 to 0.5 | 31.6 µg/mL | 958 | 117 | COc1cc2nc(C3COCCO3)cn2cc1NC(=O)c1cccn(C2CC2)c1=O (single isomer, unassigned) [Compound 7, 1-cyclopropyl-N-[2-(1,4-dioxan-2-yl)-7-methoxy-imidazo[1,2-a]pyridin-6-yl]-2-oxo-pyridine-3-carboxamide] |
|  |  | 270 (≈ 591 µM) | 0.0001 to 0.5 |  |  |  | COc1cc2nc(C3CCS(=O)(=O)CC3)cn2cc1NC(=O)c1cccn(C2CC2)c1=O [Compound 23, 1-cyclopropyl-N-(2-(1,1-dioxidotetrahydro-2H-thiopyran-4-yl)-7-methoxyimidazo[1,2-a]pyridin-6-yl)-2-oxo-1,2-dihydropyridine-3-carboxamide] |
